Measurements: ChEMBL document CHEMBL1144092, “5-Oxonoraporphines from Mitrephora cf. maingayi” (1999)
Converted amounts (≈) assume the structure as drawn. The source made the active and inactive calls. No cut-off for these calls is given here.

Tests used:
Aedes aegypti = assay: Larvicidal activity against Aedes aegypti larvae; format: functional
P388 = assay: Cytotoxicity against mouse P388 cells; format: functional; settings: P388, read-out: ED50

Structure (SMILES)	LC50 (Aedes aegypti) [µg/mL]	Activity (Aedes aegypti)	EC50 (P388) [µg/mL]
COc1c(OC)c(OC)c2c3c(cc4ccccc42)NC(=O)C(=O)c13 [OUREGIDIONE]	10000 (≈ 29.6 mM)	–	–
COc1c(O)c2c3c(c1OC)-c1ccccc1C[C@H]3NC(=O)C2	–	inactive	> 30
COc1c2c3c(c(OC)c1OC)-c1ccccc1C[C@H]3NC(=O)C2	–	inactive	> 30
